{
  "source": "paper PMC6006164",
  "about": "“Natural cyclopeptide RA-V inhibits the NF-κB signaling pathway by targeting TAK1” (Cell Death & Disease, 2018)",
  "key": {"[1]": {"tested_on": "NF-κB target genes, IL-8, MCP-1, and E-selectin", "assay": "Quantitative RT-PCR of TNF-α-induced NF-κB target genes", "assay_type": "cell-based, Homo sapiens", "conditions": "HEK293T or HeLa; RA-V 24 h, 10 ng/mL TNF-α 2 h; normalized to GADPH", "protocol": "Fig. 1 RA-V inhibits TNF-α- and LPS-induced activation of NF-κB. a Chemical structure of RA-V. b RA-V inhibited the NF-κB signaling pathway in a dose-dependent manner. HEK293T or HeLa cells were transfected with the 5 × κB-luciferase and pTK-Renilla reporters. Twenty-four hours after transfection, the cells were incubated with various concentrations of RA-V for 6 h, and then treated with 10 ng/mL TNF-α for 2 h before the luciferase activity assay and MTT assay. c RA-V reduced TNF-α-induced expression of NF-κB target genes. HEK293T or HeLa cells were treated with various concentrations of RA-V for 24 h and stimulated with 10 ng/mL TNF-α for 2 h. The expression of the NF-κB target genes, IL-8, MCP-1, and E-selectin was measured by quantitative RT-PCR and normalized to GADPH expression. d RA-V inhibited TNF-α-induced p65 phosphorylation, IκBα phosphorylation and IκBα degradation. […] The expression of IL-6 was measured. h RA-V inhibited LPS-induced p65 phosphorylation, IκBα phosphorylation. […] The protein expression was measured. i RA-V inhibited LPS-induced IL-6 production. […] The expression of IL-6 was measured.\nThe total RNA was extracted from the indicated cells using TRIzol reagent (Invitrogen) according to the manufacturer’s instructions and then was reverse transcribed. The RNA concentrations were measured spectrophotometrically with a BioPhotometer (Eppendorf). […]"}, "[2]": {"assay": "Toxicity assessment in xenograft-bearing mice", "assay_type": "in vivo, female athymic nude BALB/c mice", "from_the_text": "Fig. 8 Analysis of potential side effects for treatment of RA-V. a–b The change curves of body weights of BALB/c bearing HCT116 (a) or HepG2 (b) xenograft tumors (n = 8 or 7). c Representative hematoxylin–eosin staining of heart, kidney, spleen, lung, and liver from vehicle- and various concentrations of RA-V-treated group. d The evaluation of serum ALT, AST, and creatine kinase for vehicle- and various concentrations of the RA-V-treated group\nIn total, 2 × 10^6 HCT116 or 3 × 10^6 HepG2 cells were subcutaneously injected into the right dorsal flank of 6- to 8-week-old female athymic nude BALB/c mice. After tumor volumes reached 100 mm^3, the tumor-bearing mice were randomly divided into several groups. The mice bearing HCT116 (n = 8) or HepG2 xenograft tumors (n = 7) were received the intravenous injection of vehicle micelles or various concentrations of RA-V micelles every other day. 5-FU (10 mg/kg) group as positive control. Body weights and tumor volumes were recorded every other day. Tumor volumes were calculated using the following formula: tumor volume (mm^3) = 0.52 × length × width^2. At the end of the experiments, the mice were killed. Tumor xenografts of each mouse were removed and weighed. Part of each tumor tissue was stored at liquid nitrogen for quantitative RT-PCR analysis. Organs (heart, kidney, spleen, lung, and liver) from killed mice were also removed, fixed in the 4% formaldehyde solution for microscopic examination by hematoxylin–eosin staining. Serum alanine transaminase(ALT), aspartate transaminase(AST), and creatine kinase(CK) were determined using relevant kits (Nanjing Jiancheng) according to the manufacturer’s specific instructions."}, "[3]": {"tested_on": "p65 phosphorylation, IκBα phosphorylation and IκBα degradation", "assay": "Western blot of TNF-α-induced NF-κB-associated proteins", "assay_type": "cell-based", "conditions": "HEK293T or HeLa; RA-V 24 h, 10 ng/mL TNF-α 10 min", "protocol": "Fig. 1 RA-V inhibits TNF-α- and LPS-induced activation of NF-κB. a Chemical structure of RA-V. b RA-V inhibited the NF-κB signaling pathway in a dose-dependent manner. HEK293T or HeLa cells were transfected with the 5 × κB-luciferase and pTK-Renilla reporters. Twenty-four hours after transfection, the cells were incubated with various concentrations of RA-V for 6 h, and then treated with 10 ng/mL TNF-α for 2 h before the luciferase activity assay and MTT assay. c RA-V reduced TNF-α-induced expression of NF-κB target genes. HEK293T or HeLa cells were treated with various concentrations of RA-V for 24 h and stimulated with 10 ng/mL TNF-α for 2 h. The expression of the NF-κB target genes, IL-8, MCP-1, and E-selectin was measured by quantitative RT-PCR and normalized to GADPH expression. d RA-V inhibited TNF-α-induced p65 phosphorylation, IκBα phosphorylation and IκBα degradation. HEK293T or HeLa cells were incubated with various concentrations of RA-V for 24 h and treated with 10 ng/mL TNF-α for 10 min. The cell lysates were prepared and subjected to western blot analysis with the indicated antibodies. e RA-V inhibited TNF-α-induced IL-8 production. […] The expression of IL-6 was measured. h RA-V inhibited LPS-induced p65 phosphorylation, IκBα phosphorylation. […] The protein expression was measured. i RA-V inhibited LPS-induced IL-6 production. […] The expression of IL-6 was measured. […]"}},
  "data": [
    {"substance": "RA-V", "values": [
      {"measurement": "TNF-α-induced expression of IL-8, MCP-1, and E-selectin", "setting": "[1]", "value": "dose-dependently decreased"},
      {"measurement": "body weight", "setting": "[2]; HCT116 or HepG2 xenograft mice, measured every other day, vs control", "value": "no obvious changes"},
      {"measurement": "toxic pathological changes in heart, kidney, spleen, lung and liver", "setting": "[2]; hematoxylin–eosin staining, vs control", "value": "no obvious toxic pathological changes"},
      {"measurement": "levels of serum ALT, AST and creatine kinase", "setting": "[2]; liver and heart toxicity, vs vehicle", "value": "no significant changes"},
      {"measurement": "TNF-α-induced IκBα phosphorylation, IκBα degradation, and p65 phosphorylation", "setting": "[3]", "value": "dose-dependent inhibitory effects"}
    ]}
  ]
}
